In data set [1] the test system is Hepatitis B virus. The data set can be described thus: Antiviral activity against lamivudine-resistant Hepatitis B virus harboring reverse transcriptase L180M mutant infected in human HepG2(2.2.15) cells assessed as reduction of infectious virus titer treated daily for 9 days by quantitative Southern blot hybridization assay. It is filed as functional. The following applies: HepG2 2.2.15, 216 h.

The subject of data set [2] is Hepatitis B virus. The data set can be described thus: Fold resistance, ratio of EC90 for lamivudine-resistant Hepatitis B virus harboring reverse transcriptase L180M mutant to EC90 for wild type Hepatitis B virus. It is filed as functional.
Data set [3] concerns Hepatitis B virus. The data set is described as follows: Antiviral activity against lamivudine-resistant Hepatitis B virus harboring reverse transcriptase L180M/M204V double mutant infected in human HepG2(2.2.15) cells assessed as inhibition of virus replication treated daily for 9 days by quantitative blot hybridization method. It is filed as functional, organism-based. The following applies: HepG2 2.2.15, 216 h.

The test system of data set [4] is Hepatitis B virus. The data set is described as follows: Antiviral activity against lamivudine-resistant Hepatitis B virus harboring reverse transcriptase L180M/M204V double mutant infected in human HepG2(2.2.15) cells assessed as reduction of infectious virus titer treated daily for 9 days by quantitative Southern blot hybridization assay. It is filed as functional. The conditions noted are these: HepG2 2.2.15, 216 h.

Data set [5] relates to Hepatitis B virus. The data set can be described thus: Fold resistance, ratio of EC90 for lamivudine-resistant Hepatitis B virus harboring reverse transcriptase L180M/M204V double mutant to EC90 for wild type Hepatitis B virus. It is filed as functional.
Data set [6] concerns Hepatitis B virus. The data set is described as follows: Antiviral activity against adefovir-resistant Hepatitis B virus harboring reverse transcriptase N236T mutant infected in human HepG2(2.2.15) cells assessed as inhibition of virus replication treated daily for 9 days by quantitative blot hybridization method. It is filed as functional, organism-based. The conditions noted are these: HepG2 2.2.15, 216 h.

The test system of data set [7] is Hepatitis B virus. The data set can be described thus: Antiviral activity against adefovir-resistant Hepatitis B virus harboring reverse transcriptase N236T mutant infected in human HepG2(2.2.15) cells assessed as reduction of infectious virus titer treated daily for 9 days by quantitative Southern blot hybridization assay. It is filed as functional. The conditions noted are these: HepG2 2.2.15, 216 h.

In data set [8] the test system is Hepatitis B virus. The data set is described as follows: Fold resistance, ratio of EC90 for adefovir-resistant Hepatitis B virus harboring reverse transcriptase N236T mutant to EC90 for wild type Hepatitis B virus. It is filed as functional.
Data set [9] has as its system Hepatitis B virus. The data set can be described thus: Antiviral activity against lamivudine/entecavir-resistant Hepatitis B virus harboring reverse transcriptase L180M/M204V/S202G infected in human HepG2(2.2.15) cells assessed as inhibition of virus replication treated daily for 9 days by quantitative blot hybridization method. It is filed as functional, organism-based. The conditions noted are these: HepG2 2.2.15, 216 h.

The subject of data set [10] is Hepatitis B virus. The data set is described as follows: Ratio of adefovir EC90 to compound EC90 for wild type Hepatitis B virus. It is filed as functional.
Data set [11] has as its system Hepatitis B virus. The data set is described as follows: Ratio of adefovir EC50 to compound EC50 for adefovir-resistant Hepatitis B virus harboring reverse transcriptase N236T mutant. It is filed as functional.
Data set [12] concerns Hepatitis B virus. The data set is described as follows: Ratio of adefovir EC90 to compound EC90 for adefovir-resistant Hepatitis B virus harboring reverse transcriptase N236T mutant. It is filed as functional.
The test system of data set [13] is Hepatitis B virus. The data set can be described thus: Antiviral activity against wild type Hepatitis B virus infected in human HepG2(2.2.15) cells assessed as inhibition of virus replication treated daily for 9 days by quantitative blot hybridization method. It is filed as functional, organism-based. The conditions noted are these: HepG2 2.2.15, 216 h.
For data set [14], the system named is Hepatitis B virus. The data set is described as follows: Antiviral activity against wild type Hepatitis B virus infected in human HepG2(2.2.15) cells assessed as reduction of infectious virus titer treated daily for 9 days by quantitative Southern blot hybridization assay. It is filed as functional. The conditions noted are these: HepG2 2.2.15, 216 h.
Data set [15] is described as follows: Cytotoxicity against human HepG2(2.2.15) cells after 24 hrs by neutral red dye uptake assay. It is filed as cell-based.
Data set [16] concerns Hepatitis B virus. The data set is described as follows: Antiviral activity against lamivudine-resistant Hepatitis B virus harboring reverse transcriptase M204V mutant infected in human HepG2(2.2.15) cells assessed as inhibition of virus replication treated daily for 9 days by quantitative blot hybridization method. It is filed as functional, organism-based. The following applies: HepG2 2.2.15, 216 h.

The test system of data set [17] is Hepatitis B virus. The data set is described as follows: Antiviral activity against lamivudine-resistant Hepatitis B virus harboring reverse transcriptase M204V mutant infected in human HepG2(2.2.15) cells assessed as reduction of infectious virus titer treated daily for 9 days by quantitative Southern blot hybridization assay. It is filed as functional. The following applies: HepG2 2.2.15, 216 h.

Data set [18] has as its system Hepatitis B virus. The data set can be described thus: Fold resistance, ratio of EC90 for lamivudine-resistant Hepatitis B virus harboring reverse transcriptase M204V mutant to EC90 for wild type Hepatitis B virus. It is filed as functional.
The test system of data set [19] is Hepatitis B virus. The data set can be described thus: Antiviral activity against lamivudine-resistant Hepatitis B virus harboring reverse transcriptase M204I mutant infected in human HepG2(2.2.15) cells assessed as inhibition of virus replication treated daily for 9 days by quantitative blot hybridization method. It is filed as functional, organism-based. The conditions noted are these: HepG2 2.2.15, 216 h.

The subject of data set [20] is Hepatitis B virus. The data set can be described thus: Antiviral activity against lamivudine-resistant Hepatitis B virus harboring reverse transcriptase M204I mutant infected in human HepG2(2.2.15) cells assessed as reduction of infectious virus titer treated daily for 9 days by quantitative Southern blot hybridization assay. It is filed as functional. The conditions noted are these: HepG2 2.2.15, 216 h.

For data set [21], the system named is Hepatitis B virus. The data set can be described thus: Fold resistance, ratio of EC90 for lamivudine-resistant Hepatitis B virus harboring reverse transcriptase M204I mutant to EC90 for wild type Hepatitis B virus. It is filed as functional.
Data set [22] relates to Hepatitis B virus. The data set is described as follows: Antiviral activity against lamivudine-resistant Hepatitis B virus harboring reverse transcriptase L180M mutant infected in human HepG2(2.2.15) cells assessed as inhibition of virus replication treated daily for 9 days by quantitative blot hybridization method. It is filed as functional, organism-based. The conditions noted are these: HepG2 2.2.15, 216 h.

Data set [23] has as its system Hepatitis B virus. The data set is described as follows: Ratio of Lamivudine EC90 to compound EC90 for Lamivudine-resistant Hepatitis B virus harboring reverse transcriptase L180M mutant. It is filed as functional.
Data set [24] can be described thus: Stability of the compound assessed as resistance to calf thymus adenosine deaminase. The conditions noted are these: cattle. It is filed as ADME.

`C=C1[C@@H](n2cnc3c(N)ncnc32)[C@@H](F)[C@H](O)[C@H]1CO`: the EC90 was 5.1 µM in data set [1]; 5.5 µM in data set [4]; 4.6 µM in data set [7]; 4.5 µM in [14]; 4.7 µM in data set [17]; 5 µM in [20]. The Ratio in data set [2] is 1.1; in data set [5], 1.2; in data set [8] it was 1; in data set [10], 1.5; in [12], 7.8; in data set [18] it was 1. The Ratio in data set [21] amounted to 1.1; in data set [23], 4.3. The EC50 was found to be 2.2 µM in data set [3]; 1.7 µM in [6]; 0.67 µM in data set [9]; 1.5 µM in data set [13]; 1.8 µM in data set [16]; 1 µM in [19]. In data set [22], the concentration for a half-maximal effect (EC50) came out at 2.1 µM. Moreover, the “Ratio EC50” value in data set [11] was 4.5. Moreover, the CC50 at 24 h in [15] is more than 100 µM. Moreover, in [24], the Stability entry is “Stable”.

In the case of `Nc1ncnc2c1ncn2CCOCP(=O)(O)O` [ADEFOVIR], the EC90 in data set [1] came to 7.7 µM; in data set [4] it was 8.5 µM; in data set [7], 36 µM; in data set [14], 7.1 µM; in data set [17], 7 µM; in data set [20], 8 µM. Moreover, the Ratio in data set [2] was found to be 1.1; in data set [5], 1.2; in data set [8], 5.1; in [18] it was 1; in data set [21] it was 1.1. The EC50 amounted to 2.1 µM in data set [3]; 7.8 µM in [6]; 1.3 µM in data set [13]; 1.6 µM in data set [16]; 1.9 µM in data set [19]; 5.5 µM in data set [22].

As for `C=C1[C@H](CO)[C@@H](O)C[C@@H]1n1cnc2c(=O)[nH]c(N)nc21` [ENTECAVIR], the EC50 amounted to 1.2 µM in data set [9] and 0.008 µM in data set [13]. The EC90 in data set [14] stood at 0.033 µM. In addition, it took 28 µM to reach half-maximal cytotoxicity in [15] (CC50 at 24 h).

As for `Nc1ccn([C@@H]2CS[C@H](CO)O2)c(=O)n1` [LAMIVUDINE], the 90% effect concentration (EC90) in [1] was 22 µM; in [4] it was more than 100 µM; in [7], 0.9 µM; in data set [14], 0.6 µM; in [17], more than 100 µM; in [20], more than 100 µM. In addition, the Ratio in [2] is on record as 36.7; in [5], more than 166; in data set [8], 1.5; in [18], more than 166; in [21] it was more than 166. Besides, the concentration giving a half-maximal response (EC50) in [3] is more than 100 µM; in data set [9] it was more than 500 µM; in data set [16], more than 100 µM; in [19], more than 100 µM; in data set [22] it was 1.5 µM.

The values are drawn from ChEMBL document CHEMBL1909546, “Antiviral activity of novel 2'-fluoro-6'-methylene-carbocyclic adenosine against wild-type and drug-resistant hepatitis B virus mutants” (Bioorg Med Chem Lett, 2011).
